The values that follow are results of earlier work, collected in US20240209370A1, “METHODS OF MODULATING ALK” (SOCIETE DES PRODUITS NESTLE S.A., priority 2017, published 2024).

In this series the target is ALK (Homo sapiens, UniProt Q9UM73). The settings on record: effect on ALK activity or expression as listed from ctdbase, Medline or cited patents.
ALK, sequence (Q9UM73 19-1620): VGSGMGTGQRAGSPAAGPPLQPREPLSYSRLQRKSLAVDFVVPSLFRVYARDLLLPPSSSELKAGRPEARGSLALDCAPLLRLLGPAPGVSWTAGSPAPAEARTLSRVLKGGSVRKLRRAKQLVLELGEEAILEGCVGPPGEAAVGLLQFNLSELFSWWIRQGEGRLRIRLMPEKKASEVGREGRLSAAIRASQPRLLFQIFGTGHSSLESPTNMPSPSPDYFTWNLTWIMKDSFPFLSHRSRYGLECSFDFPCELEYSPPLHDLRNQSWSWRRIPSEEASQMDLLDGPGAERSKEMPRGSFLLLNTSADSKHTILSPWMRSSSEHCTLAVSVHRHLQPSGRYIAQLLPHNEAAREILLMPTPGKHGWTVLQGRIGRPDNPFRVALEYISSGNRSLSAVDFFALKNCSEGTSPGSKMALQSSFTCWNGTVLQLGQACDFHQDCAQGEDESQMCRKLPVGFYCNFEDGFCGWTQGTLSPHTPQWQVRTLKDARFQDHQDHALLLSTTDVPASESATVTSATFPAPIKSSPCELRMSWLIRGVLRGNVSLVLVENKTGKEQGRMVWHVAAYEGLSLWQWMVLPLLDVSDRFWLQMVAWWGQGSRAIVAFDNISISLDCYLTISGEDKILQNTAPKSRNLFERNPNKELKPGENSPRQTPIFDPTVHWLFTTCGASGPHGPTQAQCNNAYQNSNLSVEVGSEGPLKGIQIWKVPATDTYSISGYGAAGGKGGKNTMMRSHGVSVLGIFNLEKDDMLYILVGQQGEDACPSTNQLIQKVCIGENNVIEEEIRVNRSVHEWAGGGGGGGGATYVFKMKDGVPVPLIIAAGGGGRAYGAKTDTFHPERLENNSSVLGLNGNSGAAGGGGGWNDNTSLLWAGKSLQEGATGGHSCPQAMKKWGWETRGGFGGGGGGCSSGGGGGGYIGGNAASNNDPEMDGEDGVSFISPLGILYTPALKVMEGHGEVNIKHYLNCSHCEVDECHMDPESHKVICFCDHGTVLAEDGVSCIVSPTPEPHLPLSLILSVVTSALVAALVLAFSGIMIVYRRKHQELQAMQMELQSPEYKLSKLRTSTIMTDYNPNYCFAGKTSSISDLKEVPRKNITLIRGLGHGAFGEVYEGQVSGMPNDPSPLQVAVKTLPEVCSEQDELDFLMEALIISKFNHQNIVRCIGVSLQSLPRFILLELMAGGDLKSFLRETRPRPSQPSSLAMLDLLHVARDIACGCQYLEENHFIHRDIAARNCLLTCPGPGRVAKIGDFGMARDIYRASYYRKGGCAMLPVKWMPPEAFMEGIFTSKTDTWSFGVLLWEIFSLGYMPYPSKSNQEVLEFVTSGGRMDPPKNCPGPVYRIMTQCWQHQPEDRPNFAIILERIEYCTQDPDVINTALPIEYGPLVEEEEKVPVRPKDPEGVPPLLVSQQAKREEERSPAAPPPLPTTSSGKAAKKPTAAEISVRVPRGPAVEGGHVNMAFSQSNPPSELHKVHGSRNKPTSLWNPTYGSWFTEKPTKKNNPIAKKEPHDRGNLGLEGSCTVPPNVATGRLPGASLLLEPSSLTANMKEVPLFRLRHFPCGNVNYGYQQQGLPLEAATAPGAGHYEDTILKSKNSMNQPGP
With `CC(=O)N[C@@H](CS)C(=O)O` [Acetylcysteine], the “Interaction Actions” value is given as “affects activity”.

For the molecule `C[C@H](Cc1ccc(O)c(O)c1)[C@@H](C)Cc1ccc(O)c(O)c1` [Masoprocol], the “Interaction Actions” value is on record as “decreases activity”. `CC1=C(/C=C/C(C)=C/C=C/C(C)=C/C(=O)O)C(C)(C)CCC1` [Tretinoin]: the “Interaction Actions” value was “decreases expression”. As for `Cc1cc(Nc2ncc(Cl)c(Nc3ccccc3S(=O)(=O)C(C)C)n2)c(OC(C)C)cc1C1CCNCC1` [ceritinib], the “Interaction Actions” value is listed as “inhibit”. Consider `Cc1cc(O)c2c(c1)C(=O)c1cc(O)cc(O)c1C2=O` [emodin], for which the “Interaction Actions” value is given as “inhibit”. As for `CO[C@H]1C[C@@H]2CC[C@@H](C)[C@@](O)(O2)C(=O)C(=O)N2CCCC[C@H]2C(=O)O[C@H]([C@H](C)C[C@@H]2CC[C@@H](OCCO)[C@H](OC)C2)CC(=O)[C@H](C)/C=C(\C)[C@@H](O)[C@@H](OC)C(=O)[C@H](C)C[C@H](C)/C=C/C=C/C=C/1C` [everolimus], the “Interaction Actions” value was “inhibit”. Take `COc1cc2c(Oc3ccc(NC(=O)C4(C(=O)Nc5ccc(F)cc5)CC4)cc3F)ccnc2cc1OCCCN1CCOCC1` [foretinib]: the “Interaction Actions” value was “inhibit”. Take `CO[C@H]1[C@@H](OC)C[C@H](C)[C@@H](OC)C2=CC(=O)C=C(NC(=O)/C(C)=C/C=C\[C@H](OC)[C@@H](OC(N)=O)/C(C)=C/[C@@H]1C)C2=O` [herbimycin]: the “Interaction Actions” value is listed as “inhibit”. Consider `C[C@]12CCC(=O)C=C1CC[C@@H]1[C@@H]2[C@@H](O)C[C@@]2(C)[C@H]1CC[C@]2(O)C(=O)CO` [hydrocortisone], for which the “Interaction Actions” value is on record as “suppress”. For the molecule `CS(=O)(=O)CCNCc1ccc(-c2ccc3ncnc(Nc4ccc(OCc5cccc(F)c5)c(Cl)c4)c3c2)o1` [lapatinib], the “Interaction Actions” value was “inhibit”. As to `c1cncnc1` [pyrimidine], the “Interaction Actions” value is “inhibit”. For the molecule `O=S(=O)(O)OC[C@H]1O[C@@](COS(=O)(=O)O)(O[C@H]2O[C@H](COS(=O)(=O)O)[C@@H](OS(=O)(=O)O)[C@H](OS(=O)(=O)O)[C@H]2OS(=O)(=O)O)[C@@H](OS(=O)(=O)O)[C@@H]1OS(=O)(=O)O` [sucrose octasulfate], the “Interaction Actions” value is “inhibit”. `COc1cc2nccc(Oc3ccc(NC(=O)Nc4cc(C)on4)c(Cl)c3)c2cc1OC` [tivozanib]: the “Interaction Actions” value was “inhibit”. On to `C[C@H]1c2cccc(O)c2C(O)=C2C(=O)[C@]3(O)C(O)=C(C(N)=O)C(=O)[C@@H](N(C)C)[C@@H]3[C@@H](O)[C@@H]21` [vibramycin], for which the “Interaction Actions” value is on record as “inhibit”. Regarding heparin, the “Interaction Actions” value is listed as “terminate”.
